Each structure is given as a SMILES string.

Assay type in all cases: cell-based, rabbit
Test [1] deals with platelets. Kind of test: Platelet cell counting (hemocytometer) after storage of PRP. More on the design: # cells: unit not given here. Conditions: 4° C.; for # cells: Table 3, 4 bars total pressure of gas, 7 days; for Cell number: Input = 100%. Here is the method:
Blood was obtained by puncturing a rabbit marginal ear vein and collecting blood in a sterile vacuum tube. About 10-15 ml of blood was used, although the amount taken from any particular individual can be varied by the skilled artisan according to routine considerations, such as the size of the individual and the intended use of the platelets prepared according to the method of the invention.
The blood was centrifuged at a speed of approximately 200 g for 10 minutes to separate red blood cells (RBC) and platelet rich plasma (PRP). The PRP was transferred to another tube.
(§1) Two microliters of PRP were used to count cells essentially as described in Born et al. (J. Physiol. (1963) Vol. 168, pp 178-195). An additional two microliters were used for antibody staining and flow cytometry analysis performed essentially as reported in Shattil et al. (1987) Detection, Blood Vol. 70 p 307-315.
(§2) For determining platelet aggregation, approximately 250 microliters of PRP were used for a pre-treatment aggregation test. The remaining PRP was transferred to test tubes in which the atmosphere was adjusted to include xenon under two distinct pressures (4 bars of total pressure created by introducing 99.999% xenon into the test tube in a first set of experiments, and 5.3 bars of total pressure, also created by introducing 99.999% xenon into the test tube, in a second set of experiments). For adjusting the atmosphere in the containers, the test tubes were covered with rubberized caps that were punctured for introducing xenon. The test tubes were put into an experimental chamber and the atmosphere in the test tubes was adjusted by filling the test tubes with xenon using a 0.2-micrometer aseptic filter. Pressure changes in the tubes were measured using a manometer. Negative controls (no adjustment of the composition of the atmosphere in which the platelets were held) were also performed.
(§3) The chambers were shaken at 150-200 rpm on a Biosan OS-10 orbital shaker for one hour at ambient temperature (approximately 23° C.) to dissolve xenon in the PRP. The experimental chambers were then stored at approximately 4° C. with shaking at 50-70 rpm using a Biosan OS-10 orbital shaker and removed at one and two week time points for experiments under 4 bars of xenon pressure. The experiment using the initial xenon pressure of 5.3 bars were stored at 4° C. for 1 week.
After storage, the chambers were removed from refrigeration and kept at ambient temperature (approximately 23° C.) for 30 minutes with shaking at approximately 150-200 rpm. The atmosphere was then slowly allowed to equilibrate with ambient pressure of a period of 30 minutes by allowing the atmosphere in the chamber and in the test tubes to equilibrate with the atmosphere outside the test tubes through a specially adapted valve. […]
Subsequent to allowing the atmosphere in the experimental and control tubes to equilibrate with ambient pressure and temperature, the PRP samples were analyzed using conventional hemocytometer based cell counting, induced aggregation analysis using ADP and epinephrine, whereby aggregation was determined using manual counting and aggregometer analysis according to standard techniques, and by cd62p/cd61 immunostaining and flow cytometry analysis performed on an Epic XL, Beckman-Coulter cytometry machine. […]

In test [2] the test system is platelets. Kind of test: ADP-induced platelet aggregation, xenon compared to argon, vacuum step omitted. Conditions: Table 3, 4 bars total pressure of gas, 4° C., 7 days, no vacuum step. Here is the method: In view of the result obtained in Table 2, we performed another set of experiments to compare the properties of xenon to argon in ADP-induced platelet aggregation assays, the results of which are depicted in Table 3.
The experiments summarized in Table 3 were performed using an atmosphere of 4 bars total pressure created by introducing xenon or argon into the containers using essentially the same techniques as for the experiments described for Tables 1 and 2, except the PRP samples were cooled to 4° C. and held at approximately in an atmosphere of 3.8 bar xenon for 7 days. In this experiment, the initial partial pressure of xenon was 4 bars, but the pressure dropped to 3.8 bars during storage, presumably due to dissolution of xenon into the platelets from the atmosphere in the container.

The subject of test [3] is platelets. Kind of test: ADP/epinephrine induced platelet aggregation after storage of PRP. Conditions: for Aggregation (ADP/epinephrine): Xe 4 bars, Input = 100%; for Aggregation (ADP/epinephrine), %: Table 2, 7 days Xe, 4 bars.
Description: as §2, §3
After storage, the chambers were removed from refrigeration and kept at ambient temperature (approximately 23° C.) for 30 minutes with shaking at approximately 150-200 rpm. The atmosphere was then slowly allowed to equilibrate with ambient pressure of a period of 30 minutes by allowing the atmosphere in the chamber and in the test tubes to equilibrate with the atmosphere outside the test tubes through a specially adapted valve. Once the atmosphere in the chambers and test tubes equilibrated with ambient pressure, a vacuum was applied for approximately three minutes at approximately 380 mmHg to remove residual xenon from the PRP.
(§4) Analysis of the platelet function after storage included platelet counting at a hemocytometer, platelet aggregation tests using ADP and epinephrine as aggregation inducing agents, with manual counting and analysis using an aggregometer, and CD62p/CD61 antibody staining, with subsequent flow cytometry analysis on Epic XL, Beckman-Coulter generally as described in Shattil et al. (1987) Blood Vol. 70 p […] of platelets were stained using anti-CD62p and anti-CD61 antibodies obtained from commercial vendors.
(§5) Subsequent to allowing the atmosphere in the experimental and control tubes to equilibrate with ambient pressure and temperature, the PRP samples were analyzed using conventional hemocytometer based cell counting, induced aggregation analysis using ADP and epinephrine, whereby aggregation was determined using manual counting and aggregometer analysis according to standard techniques, and by cd62p/cd61 immunostaining and flow cytometry analysis performed on an Epic XL, Beckman-Coulter cytometry machine. The cdc62p/cd61 analysis was performed using commercially available antibodies and generally according to the known method reported in Shattil et al. (1987) Detection of activated platelets in whole blood using activation-dependent monoclonal antibodies and flow cytometry, Blood Vol. 70 p 307-315.

Another test has as its system Cd41/62p. Briefly: Cd41/62p immunostaining and flow cytometry (platelet activation markers). Conditions: for Cd41/62p: % of cells with activation markers, Xe 4 bars, 4° C., Input 13%.
Description: We analyzed platelet activation using a standard methodology comprising immunostaining platelets for CD62 and CD41 and subsequent analysis by flow cytometry. […] Thus, it will be recognized by those skilled in the art that the invention provides stored platelet preparations that are useful for treating individuals in need of platelet transfusion therapy. It is therefore considered that practicing the method of the invention transforms a platelet concentrate that would not ordinarily tolerate refrigeration into a platelet concentrate that can withstand refrigeration such that the platelet concentrate remains useful for transfusions after being stored at refrigerated temperature for at least two weeks. It will also be recognized that the platelet concentrate has other potential uses, such as in high-throughput assays to screen a test agent for the capability to modify platelet function.
as §1, §4, §5
In Table 1, “Input” represents pre-treatment/storage measurements. Cell number and Aggregation induced by ADP/epinephrine before performing the method are used to set 100% values. […] NG=no gas. […]
A general note: A flow cytometer gives signals particle by particle.

As to `[Ar]` [Argon, argon, reference compound], the “# cells” value in the test on platelets [1] is on record as 594 *106. Also, in the test on platelets [2], the Aggregation % amounted to 100%.

For the compound `[Xe]` [Xenon, xenon], the Cell number is 77.5%^ with platelets [1] (PRP stored 7 days, Xe 4 bars); 12.6% with platelets [1] (PRP stored 7 days, Xe 5.3 bars); 59% in the test with platelets [1] (PRP stored 14 days, Xe 4 bars). For the same compound, the “# cells” value with platelets [1] was 674 *106. This compound returned an Aggregation % in the test with platelets [2] of 87%. Moreover, the “improvement of ADP/Epinephrine induced aggregation by evacuating residual xenon with vacuum” value with platelets [3] (7 days Xe 4 bars 4° C., with vs without vacuum) was 20%. For the same compound, the “Aggregation (ADP/epinephrine)” value with platelets [3] (PRP stored 7 days, 4° C.) stood at 83%; in the test on platelets [3] (PRP stored 14 days, 4° C.) it was 54.5%^. In addition, the “Aggregation (ADP/epinephrine), %” value in the test with platelets [3] (4° C. with three minutes vacuum application) worked out at 72%; in the test on platelets [3] (4° C., no vacuum), 53%. In addition, in the test on platelets [3] (after 2 weeks of storage, 4 bar xenon treated sample vs NG control), the “induced aggregation higher than no gas control” value is “about 20%”. Besides, the Cd41/62p is listed as 39% in the test on Cd41/62p (PRP stored 7 days) and 33% with Cd41/62p (PRP stored 14 days). Also, the “surface CD62 and CD41 over control platelet concentrates not treated with xenon” value in the test on Cd41/62p (platelet concentrates treated by the method) is listed as “two-fold less”. Besides, in the test with Cd41/62p (xenon 4 bar atmosphere treated samples), the “inhibition of spontaneous activation (Cd41/62p) relative to the NG control” value is recorded as “two-fold better inhibition”.

These data come from US8652770B2, “Storage of platelets under pressure with xenon containing atmosphere” (Rich Products Corporation, priority 2008, dated 2014).
